Results on five molecules are retold here after ChEMBL document CHEMBL3751852, “New mannose derivatives: The tetrazole analogue of mannose-6-phosphate as angiogenesis inhibitor” (2016).

Molecules are shown by their SMILES. Activity calls are given as the source filed them. The rule behind the calls is not given here.

In this test the test system is Chorioallantoic membrane. As to the kind of experiment: Antiangiogenic activity in chicken chorioallantoic membrane assessed as area of neovascularization at 60 mg/ml administered on 7th embryonic day incubated for 4 days by microscopy (reference value: 100%). It is filed as functional, Gallus gallus.

On to `CO[C@H]1O[C@H](COP(=O)(O)O)[C@@H](O)[C@H](O)[C@@H]1O`, for which the Activity is recorded as 43%. The same measure, in the same setting: to `CO[C@H]1O[C@H](CCC(=O)O)[C@@H](O)[C@H](O)[C@@H]1O` belongs 70%.

`CO[C@H]1O[C@H](CCP(=O)(O)O)[C@@H](O)[C@H](O)[C@@H]1O`: the Activity turned out to be 138%.

In the case of `CO[C@H]1O[C@H](CS(=O)(=O)c2ccccc2)[C@@H](O)[C@H](O)[C@@H]1O`, under “Gallus gallus”, the outcome was inactive. On to `CO[C@H]1O[C@H](Cc2nnn[nH]2)[C@@H](O)[C@H](O)[C@@H]1O`, for which the Activity is listed as 68%.
